Measurements reported in patent US20020026053A1, “Novel 3-(substituted) -2- indolinones compounds and use thereof as inhibitors of protein kinase activity” (priority 1997, published 2002).

Test system: PDGF-R
Assay: PDGF-R Assay (cellular ELISA, U1242 cells)
Format: cell-based
Set-up: concentration or dose not given beside the values
Method: The cellular/catalytic assays described herein are performed in an ELISA format. The general procedure is as follows: a compound is introduced to cells expressing the test kinase, either naturally or recombinantly, for a selected period of time after which, if the test kinase is a receptor, a ligand known to activate the receptor is added. The cells are lysed and the lysate is transferred to the wells of an ELISA plate previously coated with a specific antibody recognizing the substrate of the enzymatic phosphorylation reaction. Non-substrate components of the cell lysate are washed away and the amount of phosphorylation on the substrate is detected with an antibody specifically recognizing phosphotyrosine compared with control cells that were not contacted with a test compound.
All cell culture media, glutamine, and fetal bovine serum can be purchased from Gibco Life Technologies (Grand Island, N.Y.) unless otherwise specified. All cells are grown in a humid atmosphere of 90-95% air and 5-10% CO2 at 37° C. All cell lines are routinely subcultured twice a week and are negative for mycoplasma as determined by the Mycotect method (Gibco).
For ELISA assays, cells (U1242, obtained from Joseph Schlessinger, NYU) are grown to 80-90% confluency in growth medium (MEM with 10% FBS, NEAA, 1 mM NaPyr and 2 mM GLN) and seeded in 96-well tissue culture plates in 0.5% serum at 25,000 to 30,000 cells per well. After overnight incubation in 0.5% serum-containing medium, cells are changed to serum-free medium and treated with test compound for 2 hr in a 5% CO2, 37° C. incubator. Cells are then stimulated with ligand for 5-10 minute followed by lysis with HNTG (20 mM Hepes, 150 mM NaCl, 10% glycerol, 5 mM EDTA, 5 mM Na3VO4, 0.2% Triton X-100, and 2 mM NaPyr). Cell lysates (0.5 mg/well in PBS) are transferred to ELISA plates previously coated with receptor-specific antibody and which had been blocked with 5% milk in TBST (50 mM Tris-HCl pH 7.2, 150 mM NaCl and 0.1% Triton X-100) at room temperature for 30 min. Lysates are incubated with shaking for 1 hour at room temperature. The plates are washed with TBST four times and then incubated with polyclonal anti-phosphotyrosine antibody at room temperature for 30 minutes. Excess anti-phosphotyrosine antibody is removed by rinsing the plate with TBST four times. Goat anti-rabbit IgG antibody is added to the ELISA plate for 30 min at room temperature followed by rinsing with TBST four more times. ABTS (100 mM citric acid, 250 mM Na2HPO4 and 0.5 mg/mL 2,2′-azino-bis (3-ethylbenzthiazoline-6-sulfonic acid)) plus H2O2 ([…] 30% H2O2 to 10 ml ABTS) is added to the ELISA plates to start color development. Absorbance at 410 nm with a reference wavelength of 630 nm is recorded about 15 to 30 min after ABTS addition.

Compound	PDGF Kinase % Inhibition (P.119)
COc1c([N+](=O)[O-])cc(C=C2C(=O)Nc3c(Br)cc(Br)c(C)c32)cc1C(C)(C)C [10733/H03]	16.8%
COc1c(C(C)(C)C)cc(C=C2C(=O)Nc3c(Br)cc(Br)c(C)c32)cc1C(C)(C)C [10733/H04]	−14.5%
Cc1c(Br)cc(Br)c2c1C(=Cc1cc(C(C)(C)C)c(OCc3ccccc3)c(C(C)(C)C)c1)C(=O)N2 [10733/H05]	−15.3%
COc1c(C)cc(C=C2C(=O)Nc3c(Br)cc(Br)c(C)c32)cc1C [10733/H06]	−12.9%
Cc1cc(C=C2C(=O)Nc3c(Br)cc(Br)c(C)c32)cc(C)c1OCc1ccccc1 [10733/H07]	−19.0%
COc1cc(Br)cc(C=C2C(=O)Nc3c(Br)cc(Br)c(C)c32)c1O [10733/H08]	−15.3%
Cc1c(Br)cc(Br)c2c1C(=Cc1cc(Br)ccc1O)C(=O)N2 [10733/H09]	5.0%
Cc1c(Br)cc(Br)c2c1C(=Cc1cc([N+](=O)[O-])ccc1O)C(=O)N2 [10733/H10]	10.7%
COc1c(O)ccc(C=C2C(=O)Nc3c(Br)cc(Br)c(C)c32)c1[N+](=O)[O-] [10733/H11]	−4.8%
